The numbers were not newly measured in EP0535567A1, “Liposomes containing volatile inhalation anaesthetics, their preparation and their use” (B. Braun Melsungen AG, priority 1991, dated 1993), which cites them from elsewhere.

Structures are written as SMILES.

The conditions of the series: fraction of the anaesthetic that is metabolised.

As for `FC(F)OC(Cl)C(F)(F)F` (stereo not shown) [Isofluran, 1-Chlor-2,2,2-trifluorethyl(difluormethyl)ether], the verstoffwechselt is < 2%.
